Test results taken from patent publication US10899755B2, “Benzothiazole compounds and uses thereof” (Incyte Corporation, priority 2018, dated 2021).

target: HPK1 (Homo sapiens, UniProt Q92918); assay: HPK1 Kinase Binding Assay; settings: active HPK1 (SignalChem M23-11G), tracer 222, LanthaScreen Eu-Anti GST antibody, one hour incubation at 25° C.
Sequence (Q92918 whole entry, looked up): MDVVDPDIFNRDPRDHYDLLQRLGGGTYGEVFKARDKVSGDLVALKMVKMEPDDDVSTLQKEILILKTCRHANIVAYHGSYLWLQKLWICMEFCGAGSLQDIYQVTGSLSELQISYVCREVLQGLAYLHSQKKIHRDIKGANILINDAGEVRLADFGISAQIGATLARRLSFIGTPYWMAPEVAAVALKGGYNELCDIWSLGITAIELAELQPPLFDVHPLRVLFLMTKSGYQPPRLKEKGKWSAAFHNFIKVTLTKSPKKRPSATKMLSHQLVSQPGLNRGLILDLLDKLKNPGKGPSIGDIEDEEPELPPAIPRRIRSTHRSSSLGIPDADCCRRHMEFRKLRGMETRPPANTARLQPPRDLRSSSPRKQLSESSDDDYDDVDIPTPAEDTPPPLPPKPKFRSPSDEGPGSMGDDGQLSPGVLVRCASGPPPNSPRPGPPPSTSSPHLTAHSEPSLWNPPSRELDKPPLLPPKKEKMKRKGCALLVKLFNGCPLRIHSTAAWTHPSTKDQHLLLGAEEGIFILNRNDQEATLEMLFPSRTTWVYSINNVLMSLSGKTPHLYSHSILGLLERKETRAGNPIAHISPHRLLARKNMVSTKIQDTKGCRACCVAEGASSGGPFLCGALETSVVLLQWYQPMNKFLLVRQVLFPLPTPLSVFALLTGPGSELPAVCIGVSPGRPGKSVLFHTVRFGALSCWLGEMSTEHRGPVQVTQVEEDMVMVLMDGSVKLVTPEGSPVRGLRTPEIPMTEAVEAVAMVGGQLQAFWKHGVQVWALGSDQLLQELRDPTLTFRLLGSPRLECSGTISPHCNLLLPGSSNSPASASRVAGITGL
Description: A stock solution of 1 mM test compound was prepared in DMSO. The compound plate was prepared by 3-fold and 11-point serial dilutions. 0.1 μL of the compound in DMSO was transferred from the compound plate to the white 384 well polystyrene plates. The assay buffer contained 50 mM HEPES, pH 7.5, 0.01% Tween-20, 5 mM MgCl2, 0.01% BSA, and 5 mM DTT. 5 μL of 4 nM active HPK1 (SignalChem M23-11G) prepared in the buffer was added to the plate. The enzyme concentration given was based on the given stock concentration reported by the vender. […] After one hour incubation at 25° C., the plates were read on a PHERAstar FS plate reader (BMG Labtech). Ki values were determined.

Question: Cc1nc2c(N3CC[C@@H](N)C3)c(NC(=O)c3ccnc(-c4c(C)cccc4F)n3)ccc2s1 [Example 2, (R)—N-(4-(3-Aminopyrrolidin-1-yl)-2-methylbenzo[d]thiazol-5-yl)-2-(2-fluoro-6-methylphenyl)pyrimidine-4-carboxamide] was tested. Which Ki did it give?
Answer: < 100 nM

Question: With Cc1nc2c(N3C[C@@H]4CC[C@H]3CN4)c(NC(=O)c3ccnc(-c4c(F)cccc4F)n3)ccc2s1 [Example 31, N-(4-((1S,4S)-2,5-Diazabicyclo[2.2.2]octan-2-yl)-2-methylbenzo[d]thiazol-5-yl)-2-(2,6-difluorophenyl)pyrimidine-4-carboxamide] as the molecule, how does the Ki read?
Answer: < 100 nM

Question: With COc1cccc(F)c1-c1nccc(C(=O)Nc2ccc3sc(C)nc3c2N2C[C@H](N)C[C@H]2CO)n1 [Example 11, N-(4-((2S,4R)-4-Amino-2-(hydroxymethyl)pyrrolidin-1-yl)-2-methylbenzo[d]thiazol-5-yl)-2-(2-fluoro-6-methoxyphenyl)pyrimidine-4-carboxamide] as the molecule, how does the Ki read?
Answer: < 100 nM

Question: Which Ki does the source give for COc1cccc(F)c1-c1nccc(C(=O)Nc2cc(C)c3sc(C)nc3c2N2CC[C@H](N)C2)n1 [Example 7, (S)—N-(4-(3-Aminopyrrolidin-1-yl)-2,7-dimethylbenzo[d]thiazol-5-yl)-2-(2-fluoro-6-methoxyphenyl)pyrimidine-4-carboxamide] here?
Answer: < 100 nM

Question: Which Ki does the source give for COc1cccc(F)c1-c1nccc(C(=O)Nc2ccc3sc(C)nc3c2N2C[C@H](NC(C)=O)C[C@H]2CO)n1 [Example 20, N-(4-((2S,4R)-4-Acetamido-2-(hydroxymethyl)pyrrolidin-1-yl)-2-methylbenzo[d]thiazol-5-yl)-2-(2-fluoro-6-methoxyphenyl)pyrimidine-4-carboxamide] here?
Answer: < 100 nM

Question: For COc1cccc(F)c1-c1nccc(C(=O)Nc2ccc3sc(C)nc3c2N(C)CC2CCN(C)C2)n1 (stereo not drawn) [Example 24, 2-(2-Fluoro-6-methoxyphenyl)-N-(2-methyl-4-(methyl((1-methylpyrrolidin-3-yl)methyl)amino)benzo[d]thiazol-5-yl)pyrimidine-4-carboxamide], which Ki is on record?
Answer: < 100 nM

Question: How did the Ki turn out when COc1cccc(F)c1-c1nccc(C(=O)Nc2cc(Br)c3sc(C)nc3c2N2CC[C@H](N)C2)n1 [Example 6, (S)—N-(4-(3-Aminopyrrolidin-1-yl)-7-bromo-2-methylbenzo[d]thiazol-5-yl)-2-(2-fluoro-6-methoxyphenyl)pyrimidine-4-carboxamide] was run?
Answer: < 100 nM

Question: Which Ki does the source give for COc1cccc(F)c1-c1nccc(C(=O)Nc2cc(C#N)c3sc(C)nc3c2N2CC[C@H](N)C2)n1 [Example 8, (S)—N-(4-(3-Aminopyrrolidin-1-yl)-7-cyano-2-methylbenzo[d]thiazol-5-yl)-2-(2-fluoro-6-methoxyphenyl)pyrimidine-4-carboxamide] here?
Answer: < 100 nM

Question: COc1cccc(F)c1-c1nccc(C(=O)Nc2cc(Cl)c3sc(C)nc3c2N2CC[C@H](N)C2)n1 [Example 5, (S)—N-(4-(3-Aminopyrrolidin-1-yl)-7-chloro-2-methylbenzo[d]thiazol-5-yl)-2-(2-fluoro-6-methoxyphenyl)pyrimidine-4-carboxamide] was tested. Which Ki did it give?
Answer: < 100 nM

Question: With COCc1nc2c(N3CCC[C@H]3CN)c(NC(=O)c3ccnc(-c4c(F)cccc4OC)n3)ccc2s1 [Example 9, (S)—N-(4-(2-(Aminomethyl)pyrrolidin-1-yl)-2-(methoxymethyl)benzo[d]thiazol-5-yl)-2-(2-fluoro-6-methoxyphenyl)pyrimidine-4-carboxamide] as the molecule, how does the Ki read?
Answer: < 100 nM

Question: For COc1cccc(F)c1-c1nccc(C(=O)Nc2ccc3sc(C)nc3c2N2C[C@H](NS(C)(=O)=O)C[C@H]2CO)n1 [Example 21, 2-(2-Fluoro-6-methoxyphenyl)-N-(4((2S,4R)-2-(hydroxymethyl)-4-(methylsulfonamido)pyrrolidin-1-yl)-2-methylbenzo[d]thiazol-5-yl)pyrimidine-4-carboxamide], which Ki is on record?
Answer: < 100 nM

Question: For [2H]C([2H])([2H])Oc1ccc(C#N)c(F)c1-c1nccc(C(=O)Nc2ccc3sc(C)nc3c2N2C[C@H](N)C[C@H]2CO)n1 [Example 17, N-(4-((2S,4R)-4-Amino-2-(hydroxymethyl)pyrrolidin-1-yl)-2-methylbenzo[d]thiazol-5-yl)-2-(3-cyano-2-fluoro-6-(methoxy-d3)phenyl)pyrimidine-4-carboxamide], which Ki is on record?
Answer: < 100 nM

Question: COc1cccc(F)c1-c1nccc(C(=O)Nc2ccc3sc(C)nc3c2N2CC(F)(F)C[C@H]2CO)n1 [Example 30, (S)—N-(4-(4,4-Difluoro-2-(hydroxymethyl)pyrrolidin-1-yl)-2-methylbenzo[d]thiazol-5-yl)-2-(2-fluoro-6-methoxyphenyl)pyrimidine-4-carboxamide] was tested. Which Ki did it give?
Answer: < 100 nM

Question: Which Ki does the source give for COc1cccc(F)c1-c1nccc(C(=O)Nc2ccc3sc(C)nc3c2N2CCC3CCNCC32)n1 (stereo not drawn) [Example 28, 2-(2-Fluoro-6-methoxyphenyl)-N-(2-methyl-4-(octahydro-1H-pyrrolo[2,3-c]pyridin-1-yl)benzo[d]thiazol-5-yl)pyrimidine-4-carboxamide] here?
Answer: < 100 nM

Question: For COCCc1nc2c(N3CCC[C@H]3CN)c(NC(=O)c3ccnc(-c4c(F)cccc4OC)n3)ccc2s1 [Example 10, (S)—N-(4-(2-(Aminomethyl)pyrrolidin-1-yl)-2-(2-methoxyethyl)benzo[d]thiazol-5-yl)-2-(2-fluoro-6-methoxyphenyl)pyrimidine-4-carboxamide], which Ki is on record?
Answer: < 100 nM

Question: Which Ki does the source give for COc1cccc(F)c1-c1nccc(C(=O)Nc2ccc3sc(C)nc3c2N(C)[C@@H]2CCCNC2)n1 [Example 27] here?
Answer: < 100 nM

Question: With COc1cccc(F)c1-c1nccc(C(=O)Nc2ccc3sc(C)nc3c2N2C[C@H](NC3CCOCC3)C[C@H]2CO)n1 [Example 19, 2-(2-Fluoro-6-methoxyphenyl)-N-(4((2S,4R)-2-(hydroxymethyl)-4-(tetrahydro-2H-pyran-4-ylamino)pyrrolidin-1-yl)-2-methylbenzo[d]thiazol-5-yl)pyrimidine-4-carboxamide] as the molecule, how does the Ki read?
Answer: < 100 nM

Question: How did the Ki turn out when COc1cccc(F)c1-c1nccc(C(=O)Nc2ccc3sc(C)nc3c2N2C[C@H](NC(C)C)C[C@H]2CO)n1 [Example 18, 2-(2-Fluoro-6-methoxyphenyl)-N-(4((2S,4R)-2-(hydroxymethyl)-4-(isopropylamino)pyrrolidin-1-yl)-2-methylbenzo[d]thiazol-5-yl)pyrimidine-4-carboxamide] was run?
Answer: < 100 nM

Question: For COc1ccc(-c2cnn(C)c2)c(F)c1-c1nccc(C(=O)Nc2ccc3sc(C)nc3c2N2C[C@H](N)C[C@H]2CO)n1 [Example 15, N-(4-((2S,4R)-4-Amino-2-(hydroxymethyl)pyrrolidin-1-yl)-2-methylbenzo[d]thiazol-5-yl)-2-(2-fluoro-6-methoxy-3-(1-methyl-1H-pyrazol-4-yl)phenyl)pyrimidine-4-carboxamide], which Ki is on record?
Answer: < 100 nM

Question: For COc1cccc(F)c1-c1nccc(C(=O)Nc2ccc3sc(C)nc3c2N2C[C@H]3C[C@@H]2CN3C(=O)N2CCOCC2)n1 [Example 25, 2-(2-Fluoro-6-methoxyphenyl)-N-(2-methyl-4((1R,4R)-5-(morpholine-4-carbonyl)-2,5-diazabicyclo[2.2.1]heptan-2-yl)benzo[d]thiazol-5-yl)pyrimidine-4-carboxamide], which Ki is on record?
Answer: < 100 nM

Question: Cc1nc2c(N3CC[C@@H](N)C3)c(NC(=O)c3ccnc(-c4c(F)cccc4F)n3)ccc2s1 [Example 1, (R)—N-(4-(3-Aminopyrrolidin-1-yl)-2-methylbenzo[d]thiazol-5-yl)-2-(2,6-difluorophenyl)pyrimidine-4-carboxamide] was tested. Which Ki did it give?
Answer: < 100 nM
